Entries after “also recorded” stand apart in the source; their conditions may differ.
What was measured:
[1] = Ex-vivo cut-and-count whole-body biodistribution of I.V.-injected [11C]ERGO in WT mice; parameters: species or system mouse; conditions: for brain concentration: after cardiac perfusion
Experimental: At 5 or 10 min post injection, anesthetized mice were laid on the shallow tray filled with crushed ice and the thoracic cavity was accessed using a scalpel after making […] mid-line incision from the abdominal area. After careful separation of the liver from the diaphragm, the thoracic opening was stabilized with a retractor. Perfusion was performed as we described in the past. Following removal of air bubbles, approximately 30 mL (pH7.4) of ice-cold PBS buffer is slowly injected in the left ventricle toward the ascending aorta using a 25-G syringe while the right atrium was snipped off using a curved point squeeze snip scissors to facilitate drainage of the systemic venous return. Then, 30 mL of 4% paraformaldehyde (PFA, pH 7.4) was perfused. When completed, tissues were harvested and weighed before counting using the automatic gamma counter (Hidex).
Cohorts of WT mice were injected with [^11C]ERGO probe, followed by cardiac perfusion 5 (n=5), 10 (n=5) and 30 (n=6) minutes after injection before tissues were collected for activity counting.

[2] = tested on: neuroblastoma SH-SY5Y cells; experiment: DCFH-DA ROS scavenging assay in SH-SY5Y cells; assay type: cell-based
Text: (§1) We used a commercially available DCFH-DA (2′,7′-dichlorodihydrofluorescein diacetate) probe to assess the ROS scavenging power of ERGO in HeLa and neuroblastoma SH-SY5Y cells. Upon penetrating the cytoplasm, DCFH-DA is deacetylated by endogenous esterases to a non-fluorescent intermediate, followed by oxidation by free radicals. This generates a continuous and extended conjugation system, resulting in the production of highly fluorescent DCF (2′ 7′-dichlorofluorescein). In an aqueous condition, DCF has a maximal excitation and emission of 495 nm and 529 nm, respectively. Well-adhered HeLa or SH-SY5Y cells previously incubated with DCFH-DA were exposed to a commercial ROS initializer and ERGO concentrations ranging from 0-100 mM. […] Each point in the assay was measured in pentaplicate, p<0.0001.
(§2) On day 1, HeLa cells or SH-SY5Y cells were seeded into a 96-well plate with a density of 10,000 cells/mL. […] Immediately afterwards, fluorescence measurement began using a microplate reader (Biotek Industries, Agilent Technologies, Winooski, Vt., USA) with an excitation and emission wavelength of 485 nm and 528 nm, respectively. Each ERGO concentration was measured in pentaplicate.

[3] = tested on: Abeta; experiment: Abeta immunohistochemistry (6E10 antibody) of brain sections after ERGO treatment; assay type: in vivo, mouse; conditions: ERGO-treated versus non-treated 5XFAD mice, approx. 4 months of age
Experimental: To confirm the in vivo observations, animals were perfused, and the brain sections were stained with anti-Abeta antibody, 6E10. […] In particular, we observed a clear difference in the hippocampus, pyramidal cortex and thalamus of non-treated compared to ERGO-treated 5XFAD mice (FIG. 3L, 3.30, 3.3R).
Quantitative analysis of the PET imaging and IHC data was performed using imageJ software. The data was imported to GraphPad Prism version 9 for Mac (GraphPad Software, San Diego, Calif., USA) for statistical analysis. Differences between groups were tested using unpaired t-test.

[4] = tested on: 5XFAD mice; experiment: Novel object recognition after ERGO treatment; assay type: in vivo, mouse; conditions: ERGO-treated 5XFAD versus non-treated 5XFAD and WT, final test trial
Experimental: To address our primary question whether longitudinal consumption of ERGO as a potent antioxidant benefit the brain, three cohorts of animals (n=12 non-treated WT control, n=12 non-treated 5XFAD, and n=18 ERGO-treated 5XFAD) were used (FIG. 3.2A). Starting at the age of 8 weeks, the animals were treated with high doses of ERGO solution (25-50 mg/Kg) formulated in double distilled (dd) water via oral gavage three times a week over the course of eight weeks. To reduce bias in the behavioral experiments with regard to the potential stress during gavage treatment, non-treated animals underwent the identical gavage process with the vehicle, water, only. The efficacy of the therapy was evaluated by behavioral testing, followed by three different non-invasive PET imaging sessions to assess biomarkers related to AD pathology. […]
Mice were first allowed to habituate to an open arena for 5 min (white acrylic box, approximately 40 cm^2) located under a camera to record position and movement during trials. […] Preference for either object was inferred from exploratory proximity which was recorded automatically using AnyMaze using a target area comprising a circle with diameter 2-cm larger than the target objects. […]

[5] = tested on: HeLa cells; experiment: DCFH-DA ROS scavenging assay in HeLa cells; assay type: cell-based
Text: as §1, §2

[6] = about 30 minutes after injection
[7] = initial value (5 minutes post I.V. injection)

In the case of `C[N+](C)([11CH3])[C@@H](Cc1c[nH]c(=S)[nH]1)C(=O)[O-]` [[^11C]ERGO], the blood concentration [1, 6] is reported as 0.33 % ID/g, the eyes concentration [1, 6] is reported as 0.52 % ID/g and the heart concentration [1, 6] is reported as 0.51 % ID/g. It also gave a kidneys concentration [1, 6] of 4.2 % ID/g, a liver concentration [1, 6] of 2.86 % ID/g and a small intestine concentration [1, 6] of 0.64 % ID/g. It also gave a spleen concentration [1, 6] of 0.97 % ID/g, a brain concentration [1, 6] of 0.35 % ID/g and a blood concentration [1, 7] of 0.39 % ID/g. The eyes concentration [1, 7] was 0.11 % ID/g, the heart concentration [1, 7] was 0.13 % ID/g and the kidneys concentration [1, 7] was 1.33 % ID/g. It also gave a liver concentration [1, 7] of 0.61 % ID/g, a small intestine concentration [1, 7] of 0.2 % ID/g and a spleen concentration [1, 7] of 0.2 % ID/g. It also gave a brain concentration [1, 7] of 0.13 % ID/g.
In the case of `C[N+](C)(C)[C@@H](Cc1c[nH]c(=S)[nH]1)C(=O)[O-]` [ERGO, L-ergothioneine], the “DCF fluorescence signal (ROS)” value ([2]; ERGO 100 mM) is reported as “nearly negligible; also recorded: quenches the fluorescence totally”, the “DCF fluorescence signal (ROS)” value ([2]; ERGO starting from 5 mM) is reported as “attenuates the fluorescence significantly” and the “decrease in Abeta level (pixel counts), hippocampus” value [3] is reported as 4 fold. For the same compound, the “decrease in Abeta level (pixel counts), pyramidal cortex” value [3] was 5 fold, the “decrease in Abeta level (pixel counts), thalamus” value [3] was 2 fold and the discrimination index [4] was “did not vary among the groups”. For the same compound, the “DCF fluorescence signal (ROS)” value ([5]; ERGO 100 mM) was “nearly negligible; also recorded: quenches the fluorescence totally” and the “DCF fluorescence signal (ROS)” value ([5]; ERGO starting from 5 mM) was “attenuates the fluorescence significantly”.

From patent publication US20230097883A1, “ERGOTHIONEINE PET COMPOUNDS AND METHODS OF USE THEREOF” (VANDERBILT UNIVERSITY, priority 2021, published 2023)
